Results as given in patent publication US11401264B2, “Heterocyclic compound” (Orizuru Therapeutics, Inc., priority 2018, dated 2022).

System: cardiomyocytes from double knock-in human iPS cell lines (mCherry at TNNI3 locus)
Test: Experimental Example 1: mCherry (TNNI3 reporter) immunostaining measured by high contents screening
Assay type: cell-based
Parameters: key to average fluorescent intensity (at 30 μM): —: The symbol in Table 2 means that the average fluorescent intensity cannot be evaluated due to cell decrease
Details: read on 8th day, Alexa 647 anti-mCherry, control well 797
Method in brief: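 Double knock-in iPS lines (EmGFP at TNNI1, mCherry at TNNI3) differentiated as embryoid bodies in stirred bioreactor at 37 °C, 5% O2: BMP4/activin A/bFGF, then VEGF, IWP-3, dorsomorphin, SB431542, then VEGF alone. On day 14, dissociated cells seeded at 1.0×10^4 cells/well on iMatrix-511 in AK02-based cardiomyocyte medium.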

## O=C1c2ccc(N3CCOCC3)cc2CN1c1ccc2[nH]c(-c3ccc(Br)cc3)nc2c1 [Example 8, 2-(2-(4-bromophenyl)-1H-benzimidazol-5-yl)-5-(morpholin-4-yl)isoindolin-1-one]
Test compound 1 μM added on 3rd and 6th culture days
  average fluorescent intensity (at 1 μM): 985
Test compound 30 μM added on 3rd and 6th culture days
  average fluorescent intensity (at 30 μM): —
